Assay results: US9156762B2, “4,4-bis[(ethenyloxy)methyl]cyclohexene and method for producing same” (Nippon Carbide Industries Co., Inc., priority 2011, dated 2015)

Experiment: skin irritability (stated in words, no method described)
Details: the vinyl ether itself

## C=COCC1(COC=C)CC=CCC1 [4,4-bis[(ethenyloxy)methyl]cyclohexene]
  skin irritability: low
